The values below come from patent publication US20190142832A1, “Marker for Cancer Prognosis and Methods Related Thereto” (National Jewish Health, priority 2007, published 2019).

Assay [1] has as its system HLMVEC. Description: [3H]-thymidine incorporation proliferation assay in HLMVEC. It is filed as cell-based, human. Conditions: serum-starved, varying concentrations, 24 h. As for the experimental part: Proliferation of HLMVEC was measured using [^3H]-thymidine incorporation. About 20,000 cells were plated in each well of a 24-well plate in endothelial cell complete medium. After 24 h, cells were washed once with HBSS and serum-starved in EBM-2 medium containing 1% FBS, hydrocortisone, ascorbic acid and GA-1000. After 24 h, cells were incubated with [^3H] thymidine (1 μCi/well) in the presence or absence of the adenosine A2A receptor agonist, CGS-21680, at varying concentrations for an additional 24 h. Subsequently, cells were washed twice with ice-cold PBS, precipitated with 0.1 N perchloric acid, and solubilized with 0.01 N NaOH containing 0.1% SDS prior to scintillation counting. Similarly, proliferation was also measured in cells transduced with Ad.A2A or Ad.LacZ at a multiplicity of infection of 10 pfu/cell.
A general note: Uptake of a labelled nucleoside into DNA is a usual measure of proliferation.

A further assay deals with PI 3-kinase. Description: PI 3-kinase activity in anti-p85 immunoprecipitate and phospho-Akt Western blot, HLMVEC. It is filed as cell-based, human. Conditions: 1 μM. As for the experimental part:
HLMVECs were cultured on 100 mm dishes. Cells were serum starved for 24 h before treating with 1 μM of CGS-21680 (Adenosine A2A receptor agonist) or the diluent control. Following treatment, lysates were prepared and −500 μg of protein was incubated with 20 μl of anti-p85-conjugated agarose (200 μg anti p85/200 μl agarose) for 2 h, after which the complex was precipitated. PI3-kinase activity was measured in the immunoprecipitate.
(In general: In western blotting, separated proteins are transferred to a membrane and probed.)

For another assay, the system named is MB114 cells. Description: Tube formation of MB114 cells on collagen gel. The assay is classed as cell-based, murine. The following applies: 5 days. Here is the method: MB114 cells (a microvascular endothelial cell line) were plated on collagen gel in presence of absence of the A2A receptor agonist CGS-21680 at a density of 80000 cells/well using a 24 well plate. After incubation for 5 days, photos from each well were taken randomly.

In assay [2] the test system is HLMVEC. Description: Matrigel tube formation (branching) assay in HLMVEC. It is filed as cell-based, human. As for the experimental part:
Angiogenesis in HLMVEC was assessed using the Matrigel tube formation assay. Growth factor-reduced Matrigel matrix was coated onto 12-well plates and allowed to solidify at 37° C. for 30 min. HLMVEC's were then trypsinized and plated onto the Matrigel in the absence of growth factors or serum and incubated at 37° C. in a CO2 incubator. The A2A receptor agonist, CGS-21680, or the diluent control was included both in the Matrigel matrix and the overlying medium. Four hours after plating of cells, three randomly chosen fields from each well were photographed. Branch points were counted and plotted.

Assay [3] concerns adenosine A2A receptor mRNA. Description: Northern blot of adenosine A2A receptor mRNA in human endothelial cells (HLMVEC, HCAEC). The assay is classed as cell-based. As for the experimental part: To assess the role of adenosine receptors in hypoxia, primary HLMVEC were exposed to air or hypoxia. For detecting mRNA, twenty-four hours post-transduction or treatment, cells were washed twice with Hank's balanced salt solution (HBSS) and harvested in GITC. RNA was purified using the CsCl method as described earlier (Riddle et al., Am J Physiol Lung Cell Mol Physiol 278, L407 (2000). 15 μg total RNA were resolved on 1% formaldehyde-agarose gels and transferred to nylon membranes. Probes used for northern blot were derived from human A2A cDNA and human A2B cDNA kindly provided by Dr. Marlene Jacobson, Merck Research Labs, West Point, Pa. The VEGF cDNA was obtained from the Harvard Proteomic Institute. The cDNA probes were labeled with [^32P]α-dCTP (ICN, Irvine, Calif.) by random priming and hybridized with the membrane for 18 hrs at 42° C. Membranes were then washed and autoradiographed. For loading controls, membranes were stripped of radioactive probe in a 2% glyceraldehyde solution at 80° C. and rehybridized with an end-labeled 28S rRNA oligonucleotide (Ambion, Austin, Tex.). The intensity of the radiolabeled bands was measured using a PhosphorImager running ImageQuant software (Molecular Dynamics, Sunnyvale, Calif.). The same Northern Blot procedure was used in subsequent examples, unless specifically noted otherwise. Protein expression was detected using standard Western Blot methods described in Ahmad, Free Radic Biol Med. 40(7):1108(2006).

A further assay deals with A2A receptor mRNA. Description: A2A receptor mRNA expression in mouse derived endothelial cells SVEC and MB114. It is filed as cell-based. Here is the method: Primary human lung microvascular endothelial cells (HLMVEC), primary human coronary artery endothelial cells (HCAEC), primary pulmonary artery endothelial cells (HPAEC) and endothelial cell growth medium were obtained from Cambrex (Walkersville, Md.). Dimethyloxlylglycine (DMOG) was obtained from Frontier Scientific, Inc (Logan, Utah). HLMVEC and HCAEC were cultured in endothelial cell basal medium (EBM-2) supplemented with VEGF, human FGF, human EGF, hydrocortisone, ascorbic acid, insulin-like growth factor-1, GA-1000 (gentamycin/amphotericin-B), 5% fetal bovine serum as per the supplier's protocol. Murine brain microvascular endothelial cells (MB114) and SV-40 transformed mouse endothelial cells (SVEC) were cultured in DMEM supplemented with 10% FBS, penicillin and streptomycin. The same culture conditions were used in subsequent examples, unless specifically noted otherwise.
To assess the role of adenosine receptors in hypoxia, primary HLMVEC were exposed to air or hypoxia. […] The intensity of the radiolabeled bands was measured using a PhosphorImager running ImageQuant software (Molecular Dynamics, Sunnyvale, Calif.). […] Protein expression was detected using standard Western Blot methods described in Ahmad, Free Radic Biol Med. 40(7):1108(2006).

Setting [4] is: HLMVEC (donors) and HCAEC, Northern blot.

The structures appear in SMILES notation. Like-named read-outs stand apart in the source and are kept apart here.

With `CCNC(=O)[C@H]1O[C@@H](n2cnc3c(N)nc(NCCc4ccc(CCC(=O)O)cc4)nc32)[C@H](O)[C@@H]1O` [CGS-21680], the “cellular proliferation as assessed by 3[H]thymidine incorporation” value in the assay with HLMVEC [1] is reported as “increased cellular proliferation in a dose-dependent manner”. Moreover, the “expression of phosphorylated Akt (Western blot)” value in the assay with PI 3-kinase was “increases expression of phosphorylated Akt”. In the assay on PI 3-kinase (serum starved 24 h), the “PI3-kinase activity (phosphorylation of phosphoinositides, PIP3)” value was “increased PI3-kinase activity”. Moreover, in the assay on MB114 cells, the tube formation entry is reported as “promotes tube formation in a dose dependent manner”. Further, the “cell sprouting / formation of branches relative to control cells” value in the assay on HLMVEC [2] (Matrigel, 4 h) is “increased cell sprouting resulting in formation of branches”. For the same compound, the “increase in branching compared to the diluent control” value in the assay with HLMVEC [2] (Matrigel-matrix based assay, branch points 4 h after plating) was 37%.
Regarding `[Cl-].[Cl-].[Co+2]` [CoCl2], the “adenosine A2A receptor steady-state mRNA levels” value in assay [3] is given as “increases adenosine A2A receptor steady-state mRNA levels”.
In the case of `CC(=O)N(O)CCCCCNC(=O)CCC(=O)N(O)CCCCCNC(=O)CCC(=O)N(O)CCCCCN` [DFO], the “adenosine A2A receptor steady-state mRNA levels” value in assay [3] (setting [4]) was “increases adenosine A2A receptor steady-state mRNA levels”.
For `COC(=O)CNC(=O)C(=O)OC` [DMOG, Dimethyloxlylglycine], the “expression of A2A receptor mRNA levels” value with A2A receptor mRNA is recorded as “neither hypoxia nor HIF stabilization by DMOG altered the expression of A2A receptor mRNA levels”. Besides, the “adenosine A2A receptor steady-state mRNA levels” value in assay [3] (setting [4]) is reported as “increases adenosine A2A receptor steady-state mRNA levels”.
